Consider one compound from patent publication US4127446A, “Process for producing antibiotics mimosamycin and chlorocarcins A, B and C” (priority 1975, dated 1978).

Converted amounts (≈) assume the structure as drawn.

For orientation: MIC means the smallest concentration in the dilution series that meets the test's criterion for growth inhibition. A low value points to a more susceptible organism.

This assay deals with Mycobacterium tuberculosis SMR. The assay is described as follows: Antimicrobial activity of mimosamycin against tubercle bacilli (Table 4). Particulars: 672 h. Type of assay: cell-based.

`COC1=C(C)C(=O)c2cc(=O)n(C)cc2C1=O` [Mimosamycin]: the minimum inhibitory concentration (MIC) turned out to be 1.56 µg/mL (≈ 6.69 µM).
